Test results published in ChEMBL document CHEMBL1149715, “Inhibition of the Mycobacterium tuberculosis enoyl acyl carrier protein reductase InhA by arylamides” (Bioorg Med Chem, 2007).
Values after ≈ are worked out from the molar mass of the structure shown.

Tested on: Mycobacterium tuberculosis
Assay: Antibacterial activity against Mycobacterium tuberculosis H37Rv by Alamar blue assay
Type: functional

Row | Compound | MIC [µM]
1 | O=C(c1ccc2[nH]ccc2c1)N1CCN(C(c2ccc(F)cc2)c2ccc(F)cc2)CC1 | 62.5 (≈ 27 µg/mL)
2 | O=C(c1ccccc1)N1CCN(C(c2ccc(F)cc2)c2ccc(F)cc2)CC1 | 125 (≈ 49.1 µg/mL)
3 | Cc1cccc(C(=O)N2CCN(c3ccc([N+](=O)[O-])cc3)CC2)c1 | 125 (≈ 40.7 µg/mL)

Target: T1, Enoyl-[acyl-carrier-protein] reductase [NADH] (Mycobacterium tuberculosis, UniProt P9WGR1)
T1 sequence (P9WGR1 whole entry): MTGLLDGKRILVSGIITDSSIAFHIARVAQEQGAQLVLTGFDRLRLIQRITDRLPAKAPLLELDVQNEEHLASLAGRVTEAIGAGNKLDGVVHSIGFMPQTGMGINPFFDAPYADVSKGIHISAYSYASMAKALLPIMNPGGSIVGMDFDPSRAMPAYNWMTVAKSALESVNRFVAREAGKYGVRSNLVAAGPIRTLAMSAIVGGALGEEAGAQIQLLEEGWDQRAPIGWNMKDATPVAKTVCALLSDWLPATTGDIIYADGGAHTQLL
Description: Inhibition of Mycobacterium tuberculosis InhA

Row | Compound | IC50 [µM]
4 | Cc1ccc(C(=O)N2CCN(c3ccccc3)CC2)cc1 | 16.6
5 | Cc1cccc(C(=O)N2CCN(c3cccc(Cl)c3)CC2)c1 | 9.43
6 | Cc1ccc(C(=O)N2CCN(c3cccc(Cl)c3)CC2)cc1C | 0.99
7 | O=C(c1ccc(F)cc1)N1CCN(c2cccc(Cl)c2)CC1 | 9.74
8 | Cc1ccc(C(=O)N2CCN(c3cccc(C(F)(F)F)c3)CC2)cc1C | 1.85
9 | CC(C)(C)c1ccc(C(=O)N2CCN(c3cccc(Cl)c3)CC2)cc1 | > 100
10 | CC(C)(C)c1ccc(C(=O)N2CCN(c3cccc(C(F)(F)F)c3)CC2)cc1 | > 100
11 | O=C(c1cccc(Cl)c1)N1CCN(c2cccc(Cl)c2)CC1 | 6.73
12 | O=C(c1ccc(Cl)c(Cl)c1)N1CCN(c2ccccc2)CC1 | 17.6
13 | O=C(c1ccccc1)N1CCN(Cc2ccccc2)CC1 | 31.5
14 | O=C(c1cccc(Cl)c1)N1CCC(Cc2ccccc2)CC1 | 7.74
15 | Cc1ccc(C(=O)N2CCC(Cc3ccccc3)CC2)cc1 | 5.16
16 | Cc1cccc(C(=O)N2CCC(Cc3ccccc3)CC2)c1 | 7.39
17 | O=C(c1ccccc1)N1CCN(C2c3ccccc3-c3ccccc32)CC1 | 0.09
18 | O=C(c1ccccc1)N1CCN(c2ccccc2)CC1 | 38.9
19 | O=C(c1ccc2[nH]ccc2c1)N1CCN(C(c2ccc(F)cc2)c2ccc(F)cc2)CC1 | 1.04
20 | Cc1ccc(C(=O)N2CCN(C(c3ccc(F)cc3)c3ccc(F)cc3)CC2)cc1 | 1.89
21 | O=C(c1ccccc1)N1CCN(C(c2ccc(F)cc2)c2ccc(F)cc2)CC1 | 2.04
22 | Cc1ccc(C(=O)N2CCN(C3c4ccccc4-c4ccccc43)CC2)cc1 | 0.4
23 | CC(C)c1ccc(C(=O)N2CCN(c3cccc(Cl)c3)CC2)cc1 | > 100
24 | O=C(c1ccccc1F)N1CCN(c2cccc(Cl)c2)CC1 | 13.9
25 | Cc1ccc(C(=O)N2CCN(c3cccc(C(F)(F)F)c3)CC2)cc1 | 6.26
26 | Cc1cccc(C(=O)N2CCN(c3ccc([N+](=O)[O-])cc3)CC2)c1 | 15.5
27 | Cc1ccc(N2CCN(C(=O)c3ccc(C(C)(C)C)cc3)CC2)cc1Cl | > 100
28 | O=C(c1ccc(Cl)c(Cl)c1)N1CCN(c2cccc(Cl)c2)CC1 | 6.05
29 | Cc1ccc(C(=O)N2CCN(c3cccc(Cl)c3)CC2)cc1 | 3.07
30 | O=C(c1ccccc1F)N1CCC(Cc2ccccc2)CC1 | 14.1
